Consider ten molecules from ChEMBL document CHEMBL1201862, “PubChem BioAssay data set” (2004).

Test systems include SNB-19; SK-MEL-5; HT-29; RPMI-8226; UACC-257; 786-0; EKVX; DLD-1; ACHN; SK-MEL-2; HCC 2998; HCT-15; OVCAR-5; NCI-H226; IGROV-1; A498; MDA-MB-231; Hs-578T; NCI/ADR-RES; MCF7.
What all share (experiment): growth of human tumour cells (NCI), 48 h

SMILES strings stand for the structures.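 Step 1: Grow cells in 96-well plates. Step 2: Expose to compound for 48 hours at 5 concentrations. Step 3: Interpolate endpoints linearly; if unreached, use highest concentration. The concentration for 50% growth inhibition is given as GI50.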 The source made the active and inactive calls. Rule as the data show it: active = GI50 up to about 1.1 µM and inactive = higher.

With `COC(=O)C1C(OCc2ccccc2)C2CCC1(OC)C=C2C` (stereo not drawn), the GI50 was > 81.8 µM (inactive) in the test with SNB-19; > 85.5 µM (inactive) with SK-MEL-5; > 100 µM (inactive) in the test on HT-29; 23.6 µM (inactive) in the test on RPMI-8226; 42.8 µM (inactive) in the test on UACC-257; > 100 µM (inactive) with 786-0. Also, the GI50 is 46.9 µM (inactive) with EKVX; > 100 µM (inactive) with DLD-1; > 61.8 µM (inactive) with ACHN; > 50.8 µM (inactive) with SK-MEL-2; 62.5 µM (inactive) in the test with HCC 2998; greater than 89.3 µM in the test with HCT-15. Besides, the GI50 with OVCAR-5 is > 100 µM (inactive); with NCI-H226, 75.5 µM (inactive); in the test with IGROV-1, > 100 µM (inactive); in the test with A498, > 100 µM (inactive).

Regarding `c1ccc2c(c1)cc(C1NCCc3nc[nH]c31)c1ccccc12` (stereo not drawn), the GI50 with SNB-19 was > 100 µM (inactive); with SK-MEL-5 it was > 48 µM (inactive); in the test on HT-29 it was 44.4 µM (inactive); in the test on RPMI-8226 it was 37.6 µM (inactive); in the test with UACC-257, 31 µM (inactive); in the test with 786-0, 32.1 µM (inactive). Besides, the GI50 in the test with EKVX is > 100 µM (inactive); with DLD-1 it was 63.8 µM (inactive); with ACHN, 23.2 µM (inactive); in the test on SK-MEL-2 it was 18.4 µM (inactive); in the test with HCC 2998, 15.7 µM (inactive); with HCT-15, 59.6 µM. Also, the GI50 with OVCAR-5 is > 74.3 µM (inactive); in the test on NCI-H226, 27.7 µM (inactive); with IGROV-1, > 54.6 µM (inactive); in the test with A498, 22.5 µM (inactive).

Turning to `O=C(O)C(CS)NCc1c2ccccc2[n+]([O-])c2ccccc12` (stereo not drawn), the GI50 in the test with SNB-19 is 38 µM (inactive); with SK-MEL-5, 30.7 µM (inactive); in the test with HT-29 it was 37.8 µM (inactive); in the test with RPMI-8226, 26.3 µM (inactive); in the test on UACC-257, > 100 µM (inactive); in the test with 786-0, 37.2 µM (inactive). Besides, the GI50 is 54.3 µM (inactive) in the test with EKVX; 31.6 µM (inactive) in the test on DLD-1; 33.4 µM (inactive) in the test on ACHN; 45.6 µM (inactive) in the test with SK-MEL-2; 36.1 µM (inactive) in the test on HCC 2998; 22.8 µM with HCT-15. The GI50 was > 100 µM (inactive) in the test on OVCAR-5, 39.9 µM (inactive) in the test with NCI-H226, 33.2 µM (inactive) in the test with IGROV-1 and 68.7 µM (inactive) with A498.

Turning to `Cc1ccc(S(=O)(=O)c2ccccn2)cc1`, the GI50 with SNB-19, in the test on SK-MEL-5, with HT-29, with RPMI-8226, in the test on UACC-257 and in the test on 786-0 was > 100 µM (inactive) each time. Moreover, the GI50 with EKVX was > 100 µM (inactive); with DLD-1, > 100 µM (inactive); in the test on ACHN, > 100 µM (inactive); with SK-MEL-2, > 100 µM (inactive); with HCC 2998, > 100 µM (inactive); in the test with HCT-15 it was greater than 100 µM. The GI50 is 46.5 µM (inactive) in the test with OVCAR-5, > 100 µM (inactive) with NCI-H226, > 100 µM (inactive) in the test with IGROV-1 and > 100 µM (inactive) in the test with A498.

As for `CC(=O)OC1(C#N)CC2OC1C1N=NN(C(=O)OC(C)(C)C)C21` (stereo not drawn), the GI50 in the test with SNB-19 is > 100 µM (inactive); in the test with SK-MEL-5, > 31.6 µM (inactive); in the test on HT-29, > 100 µM (inactive); with RPMI-8226 it was 30.3 µM (inactive); in the test with UACC-257, 20.4 µM (inactive); in the test on 786-0, > 100 µM (inactive). Moreover, the GI50 is 55.1 µM (inactive) in the test with EKVX; 14.7 µM (inactive) with DLD-1; > 100 µM (inactive) in the test on ACHN; 11.2 µM (inactive) with SK-MEL-2; > 100 µM (inactive) in the test with HCC 2998; 13.8 µM in the test on HCT-15. The GI50 in the test on OVCAR-5 is > 100 µM (inactive); with NCI-H226, 3.76 µM (inactive); with IGROV-1 it was > 31.6 µM (inactive); with A498 it was > 100 µM (inactive).

With `Cc1cc(N(CC(C)Br)CC(C)Br)ccc1/N=N/c1ccccc1C(=O)O` (stereo not drawn), the GI50 in the test on SNB-19 is 9.04 µM (inactive); with SK-MEL-5 it was 3.19 µM (inactive); in the test on MDA-MB-231, 14.8 µM (inactive); with Hs-578T, 11.1 µM (inactive); in the test with HT-29 it was 4.85 µM (inactive); in the test on NCI/ADR-RES it was 15.2 µM (inactive). Also, the GI50 was 1.75 µM (inactive) in the test on RPMI-8226; 4.53 µM (inactive) in the test on UACC-257; 2.77 µM (inactive) in the test with 786-0; 9.12 µM (inactive) in the test with EKVX; 3.93 µM (inactive) in the test on DLD-1; 2.79 µM (inactive) with ACHN. In addition, the GI50 with SK-MEL-2 was 2.93 µM (inactive); in the test with HCC 2998 it was 1.15 µM (inactive); in the test with MCF7 it was 0.787 µM (active); with HCT-15, 8.81 µM; in the test on OVCAR-5 it was 2.74 µM (inactive); in the test with NCI-H226, 4.52 µM (inactive). Further, the GI50 with IGROV-1 was 11 µM (inactive); in the test on A498, 1.67 µM (inactive).

As to `COC(=O)N/N=C(\C)C(CN(C)C)C(c1ccccc1)c1c(O)c2ccccc2oc1=O` (stereo not drawn), the GI50 in the test with SNB-19, in the test with SK-MEL-5, in the test on HT-29, with RPMI-8226, in the test on UACC-257 and in the test with 786-0 was > 100 µM (inactive) throughout. Further, the GI50 in the test on EKVX is > 100 µM (inactive); in the test on DLD-1, > 100 µM (inactive); in the test on ACHN, > 100 µM (inactive); in the test on SK-MEL-2, > 100 µM (inactive); in the test with HCC 2998 it was > 100 µM (inactive); in the test with HCT-15, greater than 100 µM. Besides, the GI50 in the test on OVCAR-5, in the test on NCI-H226, in the test with IGROV-1 and with A498 was > 100 µM (inactive) throughout.

Take `O=C1C=CC(=O)c2c1ccc1c3ccccc3n(-c3ccccc3)c21`: the GI50 was 19.5 µM (inactive) with SNB-19; 16.7 µM (inactive) in the test on SK-MEL-5; 4.45 µM (inactive) in the test with MDA-MB-231; 17.7 µM (inactive) in the test on Hs-578T; 15.8 µM (inactive) with HT-29; 1.26 µM (inactive) in the test on RPMI-8226. Besides, the GI50 with UACC-257 is 5.65 µM (inactive); in the test on 786-0, 4.86 µM (inactive); in the test on EKVX it was 8.77 µM (inactive); with DLD-1, 2.26 µM (inactive); in the test with ACHN, 3.26 µM (inactive); with SK-MEL-2 it was 13.1 µM (inactive). In addition, the GI50 was 24.9 µM (inactive) in the test on HCC 2998; 2.11 µM (inactive) in the test with MCF7; 3.48 µM with HCT-15; 17.1 µM (inactive) with OVCAR-5; 18.3 µM (inactive) in the test with NCI-H226; 18.3 µM (inactive) in the test with IGROV-1. The GI50 with A498 is 17.9 µM (inactive).

As for `CC(=O)O[C@H]1C(=O)[C@@]2(C)C(C(OC(=O)c3ccccc3)[C@]3(O)C[C@H](OC(=O)C(OC(=O)CCCC(=O)NCCCN(C)C)C(NC(=O)c4ccccc4)c4ccccc4)C(C)=C1C3(C)C)C1(OC(C)=O)COC1C[C@@H]2O` (stereo partly drawn), the GI50 is 0.0152 µM (active) with SNB-19; < 0.01 µM (active) with SK-MEL-5; < 0.0125 µM (active) with MDA-MB-231; < 0.01 µM (active) with Hs-578T; < 0.01 µM (active) with HT-29; 5.02 µM (inactive) in the test on NCI/ADR-RES. The GI50 was < 0.01 µM (active) in the test on RPMI-8226; 0.0143 µM (active) in the test on UACC-257; 0.0134 µM (active) in the test with 786-0; 0.262 µM (active) with EKVX; 0.0194 µM (active) with DLD-1; 0.652 µM (active) with ACHN. Moreover, the GI50 in the test with SK-MEL-2 was < 0.01 µM (active); with HCC 2998 it was < 0.01 µM (active); with MCF7, < 0.01 µM (active); in the test on HCT-15 it was 0.406 µM; in the test with OVCAR-5, < 0.0139 µM (active); in the test on NCI-H226, 0.495 µM (active). Besides, the GI50 is 0.0138 µM (active) with IGROV-1 and 0.0607 µM (active) with A498.

Take `CC(C)(C)c1cc(C=C(C#N)C#N)cc(C(C)(C)C)c1O` [TYRPHOSTIN A9]: the GI50 is 0.392 µM (active) in the test with SNB-19; 0.376 µM (active) in the test with SK-MEL-5; 1.56 µM (inactive) in the test on MDA-MB-231; 0.384 µM (active) with Hs-578T; 0.375 µM (active) in the test with HT-29; 0.299 µM (active) in the test on NCI/ADR-RES. Further, the GI50 with UACC-257 is 0.281 µM (active); in the test on 786-0, 0.652 µM (active); with DLD-1, 0.828 µM (active); in the test on ACHN it was 0.356 µM (active); in the test on SK-MEL-2, 0.365 µM (active); with HCC 2998, 0.456 µM (active). Besides, the GI50 was 0.391 µM (active) in the test on MCF7; 0.366 µM with HCT-15; 4.03 µM (inactive) in the test on OVCAR-5; 1.34 µM (inactive) with NCI-H226; 0.682 µM (active) in the test with IGROV-1; 0.277 µM (active) in the test with A498.
